Source: US20250388602A1 (Genase Therapeutics B.V., priority 2022, published 2025)

Legend:
MOLM-13 cells = test: MOLM-13 cell viability (Assay B), Cell Titer-Glo; type: cell-based
How it was run: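 Cells at 1,000 per well in RPMI/10% FBS were exposed to compound (10E-5 to 6E-12 M), with or without 100 μM uridine, for 72 h. Viability was read by CellTiter-Glo luminescence. Duplicates were run, and potency was taken from two independent experiments.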

[1] = cytotoxicity in mock-infected A549 cells (MTS); type: cell-based; conditions: human
Method: The lung cancer epithelial cell line A549 was obtained from the American Type Culture Collection (ATCC; Rockville, MD, USA) and cultured in MEM medium (Gibco BRL, Gaithersburg, MD, USA) with 10% fetal calf serum (FCS; Gibco BRL), 2 mM L-glutamine (Gibco BRL) and 0.075% sodium bicarbonate (Gibco BRL).
The anti-ZIKV and anti-DENV-2 activity in A549 cells was determined using a tetrazolium-based colorimetric cytopathic effect (CPE) reduction assay. […] A549 cells (1.5×10^4 cells in 100 μL cell culture medium) were seeded in 96-well flat bottom plates (TPP, Trasadingen, Switzerland) and incubated overnight to allow the cells to grow to confluency. Drug dilutions were prepared in culture medium where FCS concentration was decreased to 2% and threefold diluted in the plates (in duplicate). […] Three hours after MTS incubation, virus was inactivated using 0.5% Triton X-100 (Thermo Fisher Scientific, Waltham, MA, USA) and the absorbance was then recorded at 490 nm with a 96-well plate reader and compared with four cell control replicates (cells without virus and drugs) and four virus control wells (cells with virus but without drug). […] Absorbance was recorded using the VersaMax ELISA™ microplate reader (Molecular Devices) and analyzed with the Softmax Pro® software (Molecular Devices, Version 4.0). […]

CYP1A2 = CYP1A2 (Homo sapiens (Human), UniProt P05177); test: CYP inhibition in pooled human liver microsomes; type: in vitro ADME
Method: (§1) CYP inhibition: Co-incubation of compounds with P450 enzyme-selective substrates was performed using pooled human liver microsomes (Cat. No. H0610, Xenotech), to determine their potential to cause drug-drug interactions. The assay was performed in duplicate. The formation of acetaminophen, 7′-hydoxycoumarin, hydrobupropion, N-desethylamodiaquine, 4′-hydroxydiclofenac, 4′-hydroxymephenytoin, 1′-hydroxybufuralol, 6″-hydroxychlorzoxazone were quantified as markers for CYP1A2, CYP2A6, […], CYP2C8, CYP2C9, CYP2C19, […], CYP2E1, respectively. CYP3A4 inhibition was measured using 2 substrates, measuring the formation of […] (3A4-T), and 1′-hydroxymidazolam (3A4-M). The incubation was carried out in 96 deep well plates each well containing: 179 μL of the master solution (0.2 mg/mL microsomes plus CYP substrate (see below for final substrate concentration and incubation time for the different CYP assays)) in 100 mM phosphate buffer and 1 μL of the compound working solution or vehicle. The final concentrations of the compounds in the assay was 30 μM when using a single dose or 0.1, 0.3, 1, 3, 10 and 30 μM for a dose response.
(§2) The incubation plate was placed into a water bath and pre-warmed at 37° C. for 5 minutes before the reactions were started by the addition of 20 μL of 10 mM NADPH solution and incubated at 37° C. for the time listed above. […]

CYP2A6 = CYP2A6 (Homo sapiens (Human), UniProt P11509); test: biochemical; type: in vitro ADME
Method: as §1
(§3) The incubation plate was placed into a water bath and pre-warmed at 37° C. for 5 minutes before the reactions were started by the addition of 20 μL of 10 mM NADPH solution and incubated at 37° C. for the time listed above. The reaction was stopped by addition of 1.5 volumes (300 μL) of cold ACN containing 3% formic acid and 200 nM tolbutamide, 200 nM aprozolam and 200 nM labalol. The plate was centrifuged at 3,220 g for 50 minutes and then 200 μL of the supernatant was transferred to the analysis plate for LC/MS/MS analysis. The respective metabolite formation from each probe substrate was compared with that observed for the solvent control incubations.

CYP2B6 = CYP2B6 (Homo sapiens (Human), UniProt P20813); test: biochemical; type: in vitro ADME
Method: as §1, §3

CYP2C19 = CYP2C19 (Homo sapiens (Human), UniProt P33261); test: biochemical; type: in vitro ADME
Method: as §1, §3

CYP2C8 = CYP2C8 (Homo sapiens (Human), UniProt P10632); test: biochemical; type: in vitro ADME
Method: as §1, §3

CYP2C9 = CYP2C9 (Homo sapiens (Human), UniProt P11712); test: biochemical; type: in vitro ADME
Method: as §1, §3

CYP2D6 = CYP2D6 (Homo sapiens (Human), UniProt P10635); test: biochemical; type: in vitro ADME
Method: as §1, §3

CYP2E1 = CYP2E1 (Homo sapiens (Human), UniProt P05181); test: biochemical; type: in vitro ADME
Method: as §1, §3

CYP3A4 = CYP3A4 (Homo sapiens (Human), UniProt P08684); test: biochemical; type: in vitro ADME
Method: as §1, §3

Human CYPs = test: CYP inhibition panel in pooled human liver microsomes, overall statement; type: in vitro ADME; conditions: compared to C-analogue
Method: as §1, §2

Chain of CYP3A4 (P08684 whole entry): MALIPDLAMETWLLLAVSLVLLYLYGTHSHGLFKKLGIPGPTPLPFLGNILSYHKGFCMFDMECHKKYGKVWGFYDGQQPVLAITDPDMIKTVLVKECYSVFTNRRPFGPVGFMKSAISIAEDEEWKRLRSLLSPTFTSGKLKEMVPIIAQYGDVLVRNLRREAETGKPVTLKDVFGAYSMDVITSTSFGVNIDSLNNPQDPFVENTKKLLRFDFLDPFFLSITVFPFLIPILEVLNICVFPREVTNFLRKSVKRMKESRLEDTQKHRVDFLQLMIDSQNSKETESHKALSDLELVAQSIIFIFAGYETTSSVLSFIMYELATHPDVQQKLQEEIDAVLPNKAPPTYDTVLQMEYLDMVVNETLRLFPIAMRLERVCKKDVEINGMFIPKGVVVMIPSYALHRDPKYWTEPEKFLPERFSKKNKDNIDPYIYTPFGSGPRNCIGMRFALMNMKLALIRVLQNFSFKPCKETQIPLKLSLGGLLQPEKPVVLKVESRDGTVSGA
Chain of CYP2C8 (P10632 whole entry): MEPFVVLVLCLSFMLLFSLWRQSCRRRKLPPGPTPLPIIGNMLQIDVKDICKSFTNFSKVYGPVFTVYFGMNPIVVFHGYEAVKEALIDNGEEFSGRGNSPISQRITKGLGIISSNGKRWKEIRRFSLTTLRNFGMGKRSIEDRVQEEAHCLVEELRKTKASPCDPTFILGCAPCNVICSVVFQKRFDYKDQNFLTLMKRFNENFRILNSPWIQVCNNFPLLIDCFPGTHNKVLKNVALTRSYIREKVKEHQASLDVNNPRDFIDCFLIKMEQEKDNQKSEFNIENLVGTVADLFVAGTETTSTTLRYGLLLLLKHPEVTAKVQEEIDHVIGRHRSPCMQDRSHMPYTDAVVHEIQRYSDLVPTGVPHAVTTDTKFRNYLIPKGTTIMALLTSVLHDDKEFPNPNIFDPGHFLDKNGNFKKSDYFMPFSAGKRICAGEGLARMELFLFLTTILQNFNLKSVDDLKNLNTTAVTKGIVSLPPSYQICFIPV
Chain of CYP2D6 (P10635 whole entry): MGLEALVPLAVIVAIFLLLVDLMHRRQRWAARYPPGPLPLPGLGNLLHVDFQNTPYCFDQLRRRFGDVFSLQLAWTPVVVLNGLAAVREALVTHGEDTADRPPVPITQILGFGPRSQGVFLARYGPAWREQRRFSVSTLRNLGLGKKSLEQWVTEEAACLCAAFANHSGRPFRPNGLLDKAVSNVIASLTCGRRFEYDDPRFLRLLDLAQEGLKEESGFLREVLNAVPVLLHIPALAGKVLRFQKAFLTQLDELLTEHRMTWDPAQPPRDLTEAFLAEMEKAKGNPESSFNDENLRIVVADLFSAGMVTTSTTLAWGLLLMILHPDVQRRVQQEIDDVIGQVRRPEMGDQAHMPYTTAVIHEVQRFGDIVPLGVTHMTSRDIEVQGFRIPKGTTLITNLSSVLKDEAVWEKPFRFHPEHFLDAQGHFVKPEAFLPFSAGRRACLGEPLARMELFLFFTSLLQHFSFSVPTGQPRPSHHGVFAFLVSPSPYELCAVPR
Chain of CYP2C9 (P11712 whole entry): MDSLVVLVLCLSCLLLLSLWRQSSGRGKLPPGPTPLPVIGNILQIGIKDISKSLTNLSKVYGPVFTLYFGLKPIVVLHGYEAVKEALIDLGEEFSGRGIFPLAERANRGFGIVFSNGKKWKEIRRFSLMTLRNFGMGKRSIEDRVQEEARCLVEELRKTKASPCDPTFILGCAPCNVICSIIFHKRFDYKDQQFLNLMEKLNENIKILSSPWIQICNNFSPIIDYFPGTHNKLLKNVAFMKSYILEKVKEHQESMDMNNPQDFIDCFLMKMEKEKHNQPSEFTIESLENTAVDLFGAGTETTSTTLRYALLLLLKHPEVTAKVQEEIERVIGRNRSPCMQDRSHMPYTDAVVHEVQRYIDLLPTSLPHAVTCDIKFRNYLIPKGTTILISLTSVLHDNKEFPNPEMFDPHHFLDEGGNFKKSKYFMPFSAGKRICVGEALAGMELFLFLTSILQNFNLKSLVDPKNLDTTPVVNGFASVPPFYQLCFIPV
Chain of CYP2B6 (P20813 whole entry): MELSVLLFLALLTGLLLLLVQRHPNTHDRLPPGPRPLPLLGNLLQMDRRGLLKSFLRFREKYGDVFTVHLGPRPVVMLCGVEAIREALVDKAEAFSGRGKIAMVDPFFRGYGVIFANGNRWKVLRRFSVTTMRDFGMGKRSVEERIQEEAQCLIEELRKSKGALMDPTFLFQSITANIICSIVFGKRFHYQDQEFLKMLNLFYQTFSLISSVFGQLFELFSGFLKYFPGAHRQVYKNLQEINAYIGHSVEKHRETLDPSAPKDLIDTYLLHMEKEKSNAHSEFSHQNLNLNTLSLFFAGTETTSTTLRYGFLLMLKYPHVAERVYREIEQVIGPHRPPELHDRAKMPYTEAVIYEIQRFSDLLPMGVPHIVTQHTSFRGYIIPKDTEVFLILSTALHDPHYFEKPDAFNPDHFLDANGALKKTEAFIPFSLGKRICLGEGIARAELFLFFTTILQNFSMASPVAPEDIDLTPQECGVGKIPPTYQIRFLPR
Chain of CYP1A2 (P05177 whole entry): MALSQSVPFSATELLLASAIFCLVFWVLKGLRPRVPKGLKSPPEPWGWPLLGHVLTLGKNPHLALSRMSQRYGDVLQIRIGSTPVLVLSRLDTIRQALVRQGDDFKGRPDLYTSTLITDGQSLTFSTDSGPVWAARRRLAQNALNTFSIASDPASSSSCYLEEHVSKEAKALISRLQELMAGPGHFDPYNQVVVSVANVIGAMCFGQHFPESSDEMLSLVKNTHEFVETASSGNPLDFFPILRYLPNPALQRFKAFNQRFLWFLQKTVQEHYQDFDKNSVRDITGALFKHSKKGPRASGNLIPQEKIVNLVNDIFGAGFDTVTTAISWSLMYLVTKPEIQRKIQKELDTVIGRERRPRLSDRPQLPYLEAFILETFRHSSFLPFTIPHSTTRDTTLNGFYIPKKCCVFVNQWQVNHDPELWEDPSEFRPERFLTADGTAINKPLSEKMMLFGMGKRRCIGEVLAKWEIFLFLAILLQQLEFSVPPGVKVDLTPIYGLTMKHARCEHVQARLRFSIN
Chain of CYP2E1 (P05181 whole entry): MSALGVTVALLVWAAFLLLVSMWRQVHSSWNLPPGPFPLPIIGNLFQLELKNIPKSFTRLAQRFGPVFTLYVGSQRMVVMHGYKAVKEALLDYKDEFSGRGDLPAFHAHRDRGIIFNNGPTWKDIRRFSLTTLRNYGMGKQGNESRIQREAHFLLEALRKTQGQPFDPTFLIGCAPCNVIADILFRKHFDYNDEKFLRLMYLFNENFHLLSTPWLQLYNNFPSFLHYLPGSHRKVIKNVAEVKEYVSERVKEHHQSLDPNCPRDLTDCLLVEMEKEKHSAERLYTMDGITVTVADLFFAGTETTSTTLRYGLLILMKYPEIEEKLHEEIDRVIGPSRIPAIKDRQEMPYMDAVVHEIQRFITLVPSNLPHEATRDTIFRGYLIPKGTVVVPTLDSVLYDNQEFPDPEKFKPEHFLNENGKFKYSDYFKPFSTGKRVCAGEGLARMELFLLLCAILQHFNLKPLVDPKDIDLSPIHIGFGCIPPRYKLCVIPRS
Chain of CYP2C19 (P33261 whole entry): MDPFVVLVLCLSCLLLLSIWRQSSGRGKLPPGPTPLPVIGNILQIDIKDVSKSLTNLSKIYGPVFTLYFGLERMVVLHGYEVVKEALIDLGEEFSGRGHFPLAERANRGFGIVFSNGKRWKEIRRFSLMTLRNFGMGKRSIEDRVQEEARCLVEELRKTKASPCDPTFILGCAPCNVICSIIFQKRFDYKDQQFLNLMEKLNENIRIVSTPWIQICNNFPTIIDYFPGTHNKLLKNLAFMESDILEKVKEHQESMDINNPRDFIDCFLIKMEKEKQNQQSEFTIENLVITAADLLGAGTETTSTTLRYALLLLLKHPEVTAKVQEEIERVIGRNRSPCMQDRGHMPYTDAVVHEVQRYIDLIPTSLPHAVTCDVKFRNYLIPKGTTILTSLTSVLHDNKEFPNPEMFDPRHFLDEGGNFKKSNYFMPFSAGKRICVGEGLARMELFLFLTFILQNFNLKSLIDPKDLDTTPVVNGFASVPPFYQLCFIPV
Chain of CYP2A6 (P11509 whole entry): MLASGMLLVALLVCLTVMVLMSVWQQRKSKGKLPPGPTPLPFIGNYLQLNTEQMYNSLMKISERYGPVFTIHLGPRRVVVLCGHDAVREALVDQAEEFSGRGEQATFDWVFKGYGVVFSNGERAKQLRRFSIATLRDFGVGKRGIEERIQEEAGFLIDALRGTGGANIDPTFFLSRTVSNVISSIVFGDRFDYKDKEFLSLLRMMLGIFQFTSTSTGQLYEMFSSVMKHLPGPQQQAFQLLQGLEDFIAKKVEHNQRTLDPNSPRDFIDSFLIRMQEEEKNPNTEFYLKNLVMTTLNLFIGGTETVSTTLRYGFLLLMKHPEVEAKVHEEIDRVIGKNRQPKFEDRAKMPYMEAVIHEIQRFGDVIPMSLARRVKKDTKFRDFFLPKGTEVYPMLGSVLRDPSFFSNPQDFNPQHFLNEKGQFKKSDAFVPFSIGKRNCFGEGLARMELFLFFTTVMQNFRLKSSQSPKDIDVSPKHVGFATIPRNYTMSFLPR

COc1ccc(F)c(-n2ncc3c2COC[C@H]3NC(=O)c2ncn3c2CCCC3)c1Cl (single isomer, unassigned) [Ex-9]
IC50 (MOLM-13 cells; Homo sapiens, MOLM-13, 72 hours, bins ≥10 nM-<100 nM and <10 nM, read-out: IC50 MOLM13 inhibition activity): < 0.01 µM | MOLM13 cell growth and/or viability (FIG. 2) (MOLM-13 cells; absence of uridine): reduce MOLM13 cell growth and/or viability | effect on MOLM13 cell growth and/or viability on addition of excess uridine (FIG. 2) (MOLM-13 cells; presence of 100 μM uridine): largely prevented | CC50 [1]: 3.65 ± 0.1 µM | HLM % remaining (in vitro; % remaining at 60 min, 1 μM): 100% | half-life at 1 μM (in vitro; both, human, pooled liver microsomes): > 6.08 h | IC50 (CYP1A2): > 30 µM | IC50 (CYP2A6): > 30 µM | IC50 (CYP2B6): > 30 µM | IC50 (CYP2C19): > 30 µM | IC50 (CYP2C8): > 30 µM | IC50 (CYP2C9): > 30 µM | IC50 (CYP2D6): > 30 µM | IC50 (CYP2E1): > 30 µM | IC50 (CYP3A4; IC50 CYP3A4-M, substrate Midozolam): > 30 µM | IC50 (CYP3A4; IC50 CYP3A4-T, substrate Testosterone): > 30 µM | inhibition of human CYPs (Human CYPs): No Inhibition
